Like-named read-outs stand apart in the source and are kept apart here.
What was measured:
EBC-1 = assay: In vitro cell viability assay (cancer cell anti-proliferative activity), EBC-1; format: cell-based, human; conditions: EBC-1 cells, treated 72 hours, absorbance at 450 nm, read-out: In vitro cell viability assay (IC50, nM) EBC-1
Method: (§1) The c-MET overexpressing human gastric cancer cell lines MKN45 and SNU638 were cultured in RPMI medium with 10% fetal bovine serum, penicillin (100 U/ml), and streptomycin ([…]), and the c-MET exon 14 skipping mutant human gastric cancer cell line Hs746T was cultured in DMEM media. The c-MET overexpressing human lung cancer cell line EBC-1 was cultured in MEM media with the addition of 10% fetal bovine serum, penicillin (100U/ml), and streptomycin ([…]). The normal cell line WI-38 derived from human lung tissue was cultured in EMEM medium with the addition of 10% fetal bovine serum, penicillin (100U/ml), and streptomycin ([…]).
(§2) The compound synthesized in accordance with the present invention was prepared with a raw material solution of 10 mM dissolved in DMSO (dimethyl sulfoxide), and was sequentially diluted and processed.
(§3) In order to evaluate the inhibitory activity on cell growth, cells were dispensed in a 96-well plate at a concentration of 5,000 cells/well and then treated with the compound of the present invention prepared at various concentrations for 72 hours. The absorbance measurement at 450 nm was calculated using the GraphicPad Prism 8.0 software. The IC50 value (concentration of the compound achieving 50% cytostatic inhibition) is the average value of the measured results. […]

SNU-638 = assay: In vitro cell viability assay (cancer cell anti-proliferative activity), SNU-638; format: cell-based, human; conditions: SNU-638 cells, treated 72 hours, absorbance at 450 nm, read-out: In vitro cell viability assay (IC50, nM) SNU-638
Method: as §1, §2, §3

Compound	IC50 (EBC-1) [nM]	IC50 (SNU-638) [nM]	IC50 (EBC-1; Homo sapiens) [nM]	IC50 (SNU-638; Homo sapiens) [nM]
CN1CCN(Cc2ccc(-c3cnc(N4CCO[C@H](Cn5nnc6nc(-c7cnn(C)c7)cnc65)C4)nc3)cc2)CC1 [ABN401, reference compound]	–	–	≤ 100	≤ 100
Cn1cc(-c2cnc3c(nnn3C[C@@H]3CN(c4ncc(N5CCN(CC6CN(C(=O)OC(C)(C)C)C6)CC5)cn4)CCO3)n2)cn1 [Example B-1, tert-butyl(S)-3-((4-(2-(2-((5-(1-methyl-1H-pyrazole-4-yl)-1H-[1,2,3]triazolo[4,5-b]pyrazine-1-yl)methyl)morpholino)pyrimidine-5-il)ppiperazine-1-il)methyl)azetidine-1-carboxylate]	–	–	≤ 100	≤ 100
Cn1cc(-c2cnc3c(nnn3C[C@@H]3CN(c4ncc(N5CCN(CC6CNC6)CC5)cn4)CCO3)n2)cn1 [Example B-2]	–	–	≤ 100	≤ 100
CN1CC(CN2CCN(c3cnc(N4CCO[C@H](Cn5nnc6nc(-c7cnn(C)c7)cnc65)C4)nc3)CC2)C1 [Example B-3, (S)-2-((5-(1-methyl-1H-pyrazole-4-yl)-1H-[1,2,3]triazolo[4,5-b]pyrazine-1-yl)methyl)-4-(5-(4-((1-methylazetidine-3-yl)methyl)piperazine-1-il)pyrimidine-2-yl)morpholine]	–	–	≤ 100	≤ 100
Cn1cc(-c2cnc3c(nnn3C[C@@H]3CN(c4ncc(N5CC(CN6CCN(C(=O)OCc7ccccc7)CC6)C5)cn4)CCO3)n2)cn1 [Example B-4]	–	–	≤ 100	≤ 100
Cn1cc(-c2cnc3c(nnn3C[C@@H]3CN(c4ncc(N5CC(CN6CCNCC6)C5)cn4)CCO3)n2)cn1 [Example B-5, (S)-2-((5-(1-methyl-1H-pyrazole-4-yl)-1H-[1,2,3]triazolo[4,5-b]pyrazine-1-yl)methyl)-4-(5-(3-(piperazine-1-ylmethyl)azetidine-1-il)pyrimidine-2-yl)morpholine]	–	–	≤ 100	≤ 100
Cn1cc(-c2cnc3c(nnn3C[C@@H]3CN(c4ncc(N5CC(COCc6ccccc6)C5)cn4)CCO3)n2)cn1 [Example B-6, (S)-4-(5-(3-((benzyloxy)methyl)azetidine-1-il)pyrimidine-2-yl)-2-((5-(1-methyl-1H-pyrazole-4-yl)-1H-[1,2,3]triazolo[4,5-b]pyrazine-1-yl)methyl)morpholine]	–	–	≤ 100	≤ 100
Cn1cc(-c2cnc3c(nnn3C[C@@H]3CN(c4ncc(N5CC(CO)C5)cn4)CCO3)n2)cn1 [Example B-7, (S)-(1-(2-(2-((5-(1-methyl-1H-pyrazole-4-yl)-1H-[1,2,3]triazolo[4,5-b]pyrazine-1-yl)methyl)morpholino)pyrimidine-5-il)azetidine-3-yl)methanol]	–	–	≤ 100	≤ 100
Cc1ccc(S(=O)(=O)OCC2CN(c3cnc(N4CCO[C@H](Cn5nnc6nc(-c7cnn(C)c7)cnc65)C4)nc3)C2)cc1 [Example B-8, (S)-(1-(2-(2-((5-(1-methyl-1H-pyrazole-4-yl)-1H-[1,2,3]triazolo[4,5-b]pyrazine-1-yl)methyl)morpholino)pyrimidine-5-il)azetidine-3-yl)methyl 4-methylbenzenesulfonate]	–	–	≤ 100	≤ 100
Cn1cc(-c2cnc3c(nnn3C[C@@H]3CN(c4ncc(N5CC(CN6CCN(C(=O)OC(C)(C)C)CC6)C5)cn4)CCO3)n2)cn1 [Example B-9]	–	–	≤ 100	≤ 100
CN1CCN(CC2CN(c3cnc(N4CCO[C@H](Cn5nnc6nc(-c7cnn(C)c7)cnc65)C4)nc3)C2)CC1 [Example B-10, (S)-2-((5-(1-methyl-1H-pyrazole-4-yl)-1H-[1,2,3]triazolo[4,5-b]pyrazin-1-yl)methyl)-4-(5-(3-((4-methylpiperazine-1-yl)methyl)azetidine-1-il)pyrimidine-2-yl)morpholine]	–	–	≤ 100	≤ 100
COc1ccc(COCC2CN(c3cnc(N4CCO[C@H](Cn5nnc6nc(-c7cnn(C)c7)cnc65)C4)nc3)C2)cc1 [Example B-11, (S)-4-(5-(3-(((4-methoxybenzyl)oxy)methyl)azetidine-1-il)pyrimidine-2-yl)-2-((5-(1-methyl-1H-pyrazole-4-yl)-1H-[1,2,3]triazolo[4,5-b]pyrazine-1-yl)methyl)morpholine]	–	–	≤ 100	≤ 100
CC(C)(C)OC(=O)Nc1ccc(COCC2CN(c3cnc(N4CCO[C@H](Cn5nnc6nc(-c7cn[nH]c7)cnc65)C4)nc3)C2)cc1 [Example B-12, tert-butyl(S)-(4-(((1-(2-(2-((5-(1H-pyrazole-4-yl)-1H-[1,2,3]triazolo[4,5-b]pyrazine-1-yl)methyl)morpholino)pyrimidine-5-il)azetidine-3-il)methoxy)methyl)phenyl)carbamate]	≤ 1000	≤ 1000	–	–
Cn1cc(-c2cnc3c(nnn3C[C@@H]3CN(c4ncc(N5CC(COCc6ccc(NC(=O)OC(C)(C)C)nc6)C5)cn4)CCO3)n2)cn1 [Example B-13]	–	–	≤ 1000	≤ 1000

Continued, values first:

IC50 (EBC-1) [nM]	IC50 (SNU-638) [nM]	IC50 (EBC-1; Homo sapiens) [nM]	IC50 (SNU-638; Homo sapiens) [nM]	Compound
≤ 100	≤ 100	–	–	3-(6-oxo-1-(3-(5-(piperazine-1-yl)pyrimidine-2-yl)benzyl)-1,6-dihydropyridazine-3-yl)benzonitrile [Example C-6]
–	–	≤ 100	≤ 100	CC(C)(C)OC(=O)N1CCO[C@@H](COc2cnc(-c3cccc(Cn4nc(-c5cccc(C#N)c5)ccc4=O)c3)nc2)C1 [Example C-1, tert-butyl(2R)-2-(((2-(3-((3-(3-cyanophenyl)-6-oxopyridazin-1(6H)-yl)methyl)phenyl)pyrimidine-5-yl)oxy)methyl)methyl-4-carboxylate]
–	–	≤ 100	≤ 100	N#Cc1cccc(-c2ccc(=O)n(Cc3cccc(-c4ncc(OC[C@@H]5CNCCO5)cn4)c3)n2)c1 [Example C-2, (S)-3-(1-(3-(5-(morpholine-2-ylmethoxy)pyrimidine-2-yl)benzyl)-6-oxo-1,6-dihydropyridazine-3-yl)benzonitrile]
–	–	≤ 100	≤ 100	CC(C)(C)OC(=O)N1CCN(CCOc2cnc(-c3cccc(Cn4nc(-c5cccc(C#N)c5)ccc4=O)c3)nc2)CC1 [Example C-3]
–	–	≤ 100	≤ 100	N#Cc1cccc(-c2ccc(=O)n(Cc3cccc(-c4ncc(OCCN5CCNCC5)cn4)c3)n2)c1 [Example C-4, 3-(6-oxo-1-(3-(5-(2-(piperazine-1-yl)ethoxy)pyrimidine-2-yl)benzyl)-1,6-dihydropyridazine-3-yl)benzonitrile]
≤ 100	≤ 100	–	–	CC(C)(C)OC(=O)N1CCN(c2cnc(-c3cccc(Cn4nc(-c5cccc(C#N)c5)ccc4=O)c3)nc2)CC1 [Example C-5]
